Values of other authors, collected in patent US5773459A, “Urea- and thiourea-type compounds” (Sugen, Inc., priority 1995, dated 1998).

Legend:
[1] = system: IGF-1R protein tyrosine kinase; settings: Sepp-Lorenzino et al., Abstract, 1994; cited from earlier work
[2] = system: human breast cancer cells; settings: Sepp-Lorenzino et al., Abstract, 1994; cited from earlier work

CO[C@H]1[C@@H](OC)C[C@H](C)[C@@H](OC)C2=CC(=O)C=C(NC(=O)/C(C)=C/C=C\[C@H](OC)[C@@H](OC(N)=O)/C(C)=C/[C@@H]1C)C2=O [Herbimycin A]
inhibition of the IGF-1R protein tyrosine kinase [1]: inhibit | inhibition of cellular proliferation in human breast cancer cells [2]: inhibit
